System: HCC1937
Experiment: normalised response (% of control), CellTox Green; higher = less cell death (100 = DMSO, 0 = benzethonium chloride kill control)
Settings: incubation time: 72 h
How it was run: (§1)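 Every value is a normalised signal taken at one concentration of a dilution series. Compound was placed in 384-well plates at 5 concentrations in 10-fold steps over a compound-specific 10,000-fold range, and 20 µl of breast cancer cell suspension was seeded onto it. After 72 h, CellTox Green fluorescence (485/520 nm) was measured first and CellTiter-Glo luminescence second, following 10 min at room temperature. Each plate was scaled to 0.1 % DMSO (100) and a positive kill control (0).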

**Q.** Which normalised response does the source give for CCn1c(-c2nonc2N)nc2cnc(Oc3cccc(NC(=O)c4ccc(OCCN5CCOCC5)cc4)c3)cc21 (1000 nM) here?
**A.** 73.9%

**Q.** Which normalised response does the source give for CNC(=O)c1cccc(-c2ccc3c(N4CCOC[C@@H]4C)nc(N4CCOC[C@@H]4C)nc3n2)c1 [AZD2014] (1000 nM) here?
**A.** 70.8%

**Q.** With Nc1cc(C(F)(F)F)c(-c2cc(N3CCOCC3)nc(N3CCOCC3)n2)cn1 [Buparlisib] (1000 nM) as the molecule, how does the normalised response read?
**A.** 96.8%

**Q.** CCOC(=O)CCNc1cc(N2CCc3ccccc3CC2)nc(-c2ccccn2)n1 [GSK-J4] (10000 nM) was tested. Which normalised response did it give?
**A.** 100%

**Q.** For Cc1cc(Nc2cc(CN3CCOCC3)c3nc(C)c(Cc4ccc(Cl)cc4F)n3n2)n[nH]1 [Gandotinib] (1000 nM), which normalised response is on record?
**A.** 101%

**Q.** With COc1cc2c(NC3CCN(C(C)C)CC3)nc(N3CCC(F)(F)CC3)nc2cc1OCCCN1CCCC1 [UNC0642] (1000 nM) as the molecule, how does the normalised response read?
**A.** 108%

System: BT-549
Experiment: as above
Settings: incubation time: 72 h
How it was run: as §1

**Q.** Which normalised response does the source give for CCn1c(-c2nonc2N)nc2cnc(Oc3cccc(NC(=O)c4ccc(OCCN5CCOCC5)cc4)c3)cc21 (1000 nM) here?
**A.** 113%

**Q.** With CNC(=O)c1cccc(-c2ccc3c(N4CCOC[C@@H]4C)nc(N4CCOC[C@@H]4C)nc3n2)c1 [AZD2014] (1000 nM) as the molecule, how does the normalised response read?
**A.** 104%

**Q.** How did the normalised response turn out when Nc1cc(C(F)(F)F)c(-c2cc(N3CCOCC3)nc(N3CCOCC3)n2)cn1 [Buparlisib] (1000 nM) was run?
**A.** 113%

**Q.** How did the normalised response turn out when CCOC(=O)CCNc1cc(N2CCc3ccccc3CC2)nc(-c2ccccn2)n1 [GSK-J4] (10000 nM) was run?
**A.** 81.8%

**Q.** With Cc1cc(Nc2cc(CN3CCOCC3)c3nc(C)c(Cc4ccc(Cl)cc4F)n3n2)n[nH]1 [Gandotinib] (1000 nM) as the molecule, how does the normalised response read?
**A.** 119%

**Q.** COc1cc2c(NC3CCN(C(C)C)CC3)nc(N3CCC(F)(F)CC3)nc2cc1OCCCN1CCCC1 [UNC0642] (1000 nM) was tested. Which normalised response did it give?
**A.** 86.2%

System: DU-4475
Experiment: as above
Settings: incubation time: 72 h
How it was run: as §1

**Q.** CCn1c(-c2nonc2N)nc2cnc(Oc3cccc(NC(=O)c4ccc(OCCN5CCOCC5)cc4)c3)cc21 (1000 nM) was tested. Which normalised response did it give?
**A.** 95.2%

**Q.** CNC(=O)c1cccc(-c2ccc3c(N4CCOC[C@@H]4C)nc(N4CCOC[C@@H]4C)nc3n2)c1 [AZD2014] (1000 nM) was tested. Which normalised response did it give?
**A.** 102%

**Q.** Nc1cc(C(F)(F)F)c(-c2cc(N3CCOCC3)nc(N3CCOCC3)n2)cn1 [Buparlisib] (1000 nM) was tested. Which normalised response did it give?
**A.** 95.6%

**Q.** For CCOC(=O)CCNc1cc(N2CCc3ccccc3CC2)nc(-c2ccccn2)n1 [GSK-J4] (10000 nM), which normalised response is on record?
**A.** 79.9%

**Q.** Which normalised response does the source give for Cc1cc(Nc2cc(CN3CCOCC3)c3nc(C)c(Cc4ccc(Cl)cc4F)n3n2)n[nH]1 [Gandotinib] (1000 nM) here?
**A.** 102%

**Q.** Which normalised response does the source give for COc1cc2c(NC3CCN(C(C)C)CC3)nc(N3CCC(F)(F)CC3)nc2cc1OCCCN1CCCC1 [UNC0642] (1000 nM) here?
**A.** 96.4%

System: MDA-MB-436
Experiment: as above
Settings: incubation time: 72 h
How it was run: as §1

**Q.** How did the normalised response turn out when CCn1c(-c2nonc2N)nc2cnc(Oc3cccc(NC(=O)c4ccc(OCCN5CCOCC5)cc4)c3)cc21 (1000 nM) was run?
**A.** 88.7%

**Q.** How did the normalised response turn out when CNC(=O)c1cccc(-c2ccc3c(N4CCOC[C@@H]4C)nc(N4CCOC[C@@H]4C)nc3n2)c1 [AZD2014] (1000 nM) was run?
**A.** 82.4%

**Q.** With Nc1cc(C(F)(F)F)c(-c2cc(N3CCOCC3)nc(N3CCOCC3)n2)cn1 [Buparlisib] (1000 nM) as the molecule, how does the normalised response read?
**A.** 90%

**Q.** With CCOC(=O)CCNc1cc(N2CCc3ccccc3CC2)nc(-c2ccccn2)n1 [GSK-J4] (10000 nM) as the molecule, how does the normalised response read?
**A.** 88.8%

**Q.** Which normalised response does the source give for Cc1cc(Nc2cc(CN3CCOCC3)c3nc(C)c(Cc4ccc(Cl)cc4F)n3n2)n[nH]1 [Gandotinib] (1000 nM) here?
**A.** 66.1%

**Q.** With COc1cc2c(NC3CCN(C(C)C)CC3)nc(N3CCC(F)(F)CC3)nc2cc1OCCCN1CCCC1 [UNC0642] (1000 nM) as the molecule, how does the normalised response read?
**A.** 61.8%

System: HCC1143
Experiment: as above
Settings: incubation time: 72 h
How it was run: as §1

**Q.** For CCn1c(-c2nonc2N)nc2cnc(Oc3cccc(NC(=O)c4ccc(OCCN5CCOCC5)cc4)c3)cc21 (1000 nM), which normalised response is on record?
**A.** 95.2%

**Q.** With CNC(=O)c1cccc(-c2ccc3c(N4CCOC[C@@H]4C)nc(N4CCOC[C@@H]4C)nc3n2)c1 [AZD2014] (1000 nM) as the molecule, how does the normalised response read?
**A.** 97.5%

**Q.** How did the normalised response turn out when Nc1cc(C(F)(F)F)c(-c2cc(N3CCOCC3)nc(N3CCOCC3)n2)cn1 [Buparlisib] (1000 nM) was run?
**A.** 95.9%

**Q.** CCOC(=O)CCNc1cc(N2CCc3ccccc3CC2)nc(-c2ccccn2)n1 [GSK-J4] (10000 nM) was tested. Which normalised response did it give?
**A.** 68.1%

**Q.** For Cc1cc(Nc2cc(CN3CCOCC3)c3nc(C)c(Cc4ccc(Cl)cc4F)n3n2)n[nH]1 [Gandotinib] (1000 nM), which normalised response is on record?
**A.** 97%

**Q.** Which normalised response does the source give for COc1cc2c(NC3CCN(C(C)C)CC3)nc(N3CCC(F)(F)CC3)nc2cc1OCCCN1CCCC1 [UNC0642] (1000 nM) here?
**A.** 102%

System: MFM-223
Experiment: as above
Settings: incubation time: 72 h
How it was run: as §1

**Q.** For CCn1c(-c2nonc2N)nc2cnc(Oc3cccc(NC(=O)c4ccc(OCCN5CCOCC5)cc4)c3)cc21 (1000 nM), which normalised response is on record?
**A.** 101%

**Q.** With CNC(=O)c1cccc(-c2ccc3c(N4CCOC[C@@H]4C)nc(N4CCOC[C@@H]4C)nc3n2)c1 [AZD2014] (1000 nM) as the molecule, how does the normalised response read?
**A.** 61.1%

**Q.** For Nc1cc(C(F)(F)F)c(-c2cc(N3CCOCC3)nc(N3CCOCC3)n2)cn1 [Buparlisib] (1000 nM), which normalised response is on record?
**A.** 97.5%

**Q.** Which normalised response does the source give for CCOC(=O)CCNc1cc(N2CCc3ccccc3CC2)nc(-c2ccccn2)n1 [GSK-J4] (10000 nM) here?
**A.** 76.9%

**Q.** With Cc1cc(Nc2cc(CN3CCOCC3)c3nc(C)c(Cc4ccc(Cl)cc4F)n3n2)n[nH]1 [Gandotinib] (1000 nM) as the molecule, how does the normalised response read?
**A.** 33%

**Q.** How did the normalised response turn out when COc1cc2c(NC3CCN(C(C)C)CC3)nc(N3CCC(F)(F)CC3)nc2cc1OCCCN1CCCC1 [UNC0642] (1000 nM) was run?
**A.** 88.9%

System: CAL-51
Experiment: as above
Settings: incubation time: 72 h
How it was run: as §1

**Q.** CCn1c(-c2nonc2N)nc2cnc(Oc3cccc(NC(=O)c4ccc(OCCN5CCOCC5)cc4)c3)cc21 (1000 nM) was tested. Which normalised response did it give?
**A.** 79.7%

**Q.** How did the normalised response turn out when CNC(=O)c1cccc(-c2ccc3c(N4CCOC[C@@H]4C)nc(N4CCOC[C@@H]4C)nc3n2)c1 [AZD2014] (1000 nM) was run?
**A.** 92.3%

**Q.** Which normalised response does the source give for Nc1cc(C(F)(F)F)c(-c2cc(N3CCOCC3)nc(N3CCOCC3)n2)cn1 [Buparlisib] (1000 nM) here?
**A.** 107%

**Q.** For CCOC(=O)CCNc1cc(N2CCc3ccccc3CC2)nc(-c2ccccn2)n1 [GSK-J4] (10000 nM), which normalised response is on record?
**A.** 52.1%

**Q.** Cc1cc(Nc2cc(CN3CCOCC3)c3nc(C)c(Cc4ccc(Cl)cc4F)n3n2)n[nH]1 [Gandotinib] (1000 nM) was tested. Which normalised response did it give?
**A.** 71.4%

**Q.** For COc1cc2c(NC3CCN(C(C)C)CC3)nc(N3CCC(F)(F)CC3)nc2cc1OCCCN1CCCC1 [UNC0642] (1000 nM), which normalised response is on record?
**A.** 98%

System: Hs578T
Experiment: as above
Settings: incubation time: 72 h
How it was run: as §1

**Q.** For CCn1c(-c2nonc2N)nc2cnc(Oc3cccc(NC(=O)c4ccc(OCCN5CCOCC5)cc4)c3)cc21 (1000 nM), which normalised response is on record?
**A.** 96.5%

**Q.** With CNC(=O)c1cccc(-c2ccc3c(N4CCOC[C@@H]4C)nc(N4CCOC[C@@H]4C)nc3n2)c1 [AZD2014] (1000 nM) as the molecule, how does the normalised response read?
**A.** 102%

**Q.** Nc1cc(C(F)(F)F)c(-c2cc(N3CCOCC3)nc(N3CCOCC3)n2)cn1 [Buparlisib] (1000 nM) was tested. Which normalised response did it give?
**A.** 107%

**Q.** How did the normalised response turn out when CCOC(=O)CCNc1cc(N2CCc3ccccc3CC2)nc(-c2ccccn2)n1 [GSK-J4] (10000 nM) was run?
**A.** -14.7%

**Q.** Which normalised response does the source give for Cc1cc(Nc2cc(CN3CCOCC3)c3nc(C)c(Cc4ccc(Cl)cc4F)n3n2)n[nH]1 [Gandotinib] (1000 nM) here?
**A.** 101%

**Q.** With COc1cc2c(NC3CCN(C(C)C)CC3)nc(N3CCC(F)(F)CC3)nc2cc1OCCCN1CCCC1 [UNC0642] (1000 nM) as the molecule, how does the normalised response read?
**A.** 67.8%

System: HDQ-P1
Experiment: as above
Settings: incubation time: 72 h
How it was run: as §1

**Q.** For CCn1c(-c2nonc2N)nc2cnc(Oc3cccc(NC(=O)c4ccc(OCCN5CCOCC5)cc4)c3)cc21 (1000 nM), which normalised response is on record?
**A.** 107%

**Q.** CNC(=O)c1cccc(-c2ccc3c(N4CCOC[C@@H]4C)nc(N4CCOC[C@@H]4C)nc3n2)c1 [AZD2014] (1000 nM) was tested. Which normalised response did it give?
**A.** 100%

**Q.** With Nc1cc(C(F)(F)F)c(-c2cc(N3CCOCC3)nc(N3CCOCC3)n2)cn1 [Buparlisib] (1000 nM) as the molecule, how does the normalised response read?
**A.** 98.7%

**Q.** Which normalised response does the source give for CCOC(=O)CCNc1cc(N2CCc3ccccc3CC2)nc(-c2ccccn2)n1 [GSK-J4] (10000 nM) here?
**A.** 49.9%

**Q.** How did the normalised response turn out when Cc1cc(Nc2cc(CN3CCOCC3)c3nc(C)c(Cc4ccc(Cl)cc4F)n3n2)n[nH]1 [Gandotinib] (1000 nM) was run?
**A.** 105%

**Q.** With COc1cc2c(NC3CCN(C(C)C)CC3)nc(N3CCC(F)(F)CC3)nc2cc1OCCCN1CCCC1 [UNC0642] (1000 nM) as the molecule, how does the normalised response read?
**A.** 104%

System: CAL-120
Experiment: as above
Settings: incubation time: 72 h
How it was run: as §1

**Q.** How did the normalised response turn out when CCn1c(-c2nonc2N)nc2cnc(Oc3cccc(NC(=O)c4ccc(OCCN5CCOCC5)cc4)c3)cc21 (1000 nM) was run?
**A.** 99%

Reference: the supplement of paper PMC4862054
